Legend:
[1] = tested on: GPDH (glycerol-3-phosphate-dehydrogenase); test: Measurement of GPDH activity in differentiating 3T3-L1 preadipocytes; type: cell-based; conditions: FIG. 5; compared with no addition
Procedure: (§1) Cell Culture: 3T3-L1 preadipocytes were incubated using DMRM culture medium containing 10% (by volume) of FBS at 37° C. in the presence of CO2 (5%). In this connection, as the FBS, one which had been inactivated at 56° C. for 30 minutes was used. As the cells, those which were unused (naïve) and which had been kept in liquid nitrogen were used in each experiment. On a 96 well microplate, 5×10^4 cells of the 3T3-L1 preadipocytes were seeded per well and pre-incubated for 48 hours.
(§2) Then, the culture medium was removed from the wells, and DMEM culture medium containing insulin (10 μg/ml), dexametazone (0.25 μg/ml) and IBMX (0.5 mM) was added to the wells, and incubation was further performed for 48 hours. Thereafter, differentiation to adipocytes was induce while repeating medium replacement at intervals of 4 days with the use of DMEM culture medium containing 5 μg/ml of insulin only. In this procedure, fucoxanthin was added to the culture medium to examine influence thereof on the differentiation induction.
Measurement of GPDH Activity: For measurement of GPDH (glycerol-3-phosphate-dehydrogenase) activity, a GDP H activity measuring kit (manufactured by Hokudo Co., Ltd.) was used. Specifically, 3T3-L1 preadipocytes were pre-incubated on a 24 well microplate) for 48 hours, and then differentiation to adipocytes was induced in the same manner as described above. […]

3T3-L1 preadipocytes = test: Quantitative determination of intracellular lipids with Oilred O during differentiation of 3T3-L1 preadipocytes to adipocytes; type: cell-based; conditions: FIG. 3 and FIG. 4; added to culture medium during differentiation induction
Procedure: as §1
as §2, with “In this procedure, fucoxanthin was added to the culture medium to examine influence thereof on the differentiation induction.” left out
Quantitative Determination of Intracellular Lipids with Oilred O: The cells incubated in the 96 well microplate were immobilized with formalin, and then an oilred O solution was added thereto to stain lipids in the cells. […] Subsequently, isopropanol was added to each of the wells to elute the pigment (colorant), and absorbance, i.e., optical density at 490 nm was measured using a microplate reader.

KK-Ay mice = test: Animal experiments: KK-Ay mice fed feed containing fucoxanthinol; type: in vivo
Procedure: Animals and Feed: For the animal experiments, KK-Ay mice (female; 3-week-old) were used. Feed for the experiments was prepared in accordance with AIN-93G composition (formulation). Amount of lipid in the feed was 13.5%. In the case where fucoxanthinol was added, 0.2% of the lipid in the feed was replaced with fucoxanthinol. After the preparation, the feed was immediately vacuum-packed and stored at −20° C. or lower until feeding.
Breeding and Analysis: Preliminary Breeding was conducted for a week using the feed for the control group, and individuals which grew with no problem were divided into groups each consisting of 6 mice in such a manner that there were no substantial unevennesses in body weight among the groups. With respect to each of the groups, two mice were housed and bred in each plastic cage spread with sterilized wood chips to cover the floor. In the breeding cage, temperature and humidity were kept at 23±1° C. and 50%, respectively, and each of light and dark periods was 12 hours. The mice were allowed to freely take (ingest) the feed and water, and the breeding with each of the feeds for the experiments was carried out for 24 days.
After termination of the feeding period, the mice were fasted for 12 hours. Thereafter, blood samples were collected from neck vessels in the presence of EDTA under anesthesia with (ethyl) ether. After the collection of blood samples, organs were immediately harvested and washed well with physiological saline to sufficiently clear blood therefrom. Livers were weighed and then stored at −40° C. or lower until subjected to analyses. Leptin concentrations and blood-sugar levels in blood were measured using a commercially available kit.

[2] = tested on: large intestine cancer cells; conditions: according to Non-Patent Document 1; cited from earlier work
adipocytes (fat cells) = conditions: according to Non-Patent Document 2; cited from earlier work
[3] = 24 days feeding, versus control group
[4] = after 24 days feeding, versus control group

Molecule	relative GPDH activity (relative amount of adipocytes, preadipocytes = 1) [1]	fat (lipid) accumulation associated with differentiation of 3T3-L1 preadipocytes to adipocytes (optical density at 490 nm, Oilred O) (3T3-L1 preadipocytes)	weight of visceral fat per 100 g of body weight (KK-Ay mice; FIG. 6, 0.2% of feed lipid replaced, 24 days, versus control group)	leptin concentration in blood (KK-Ay mice; FIG. 7, 24 days feeding, versus control group)	blood sugar level (KK-Ay mice; FIG. 8, 24 days feeding, versus control group)	antiproliferative activity / proliferation of large intestine cancer cells [2]	differentiation suppressing activity on adipocytes (adipocytes (fat cells))	amount of feed intake (KK-Ay mice; [3])	increase in body weight (KK-Ay mice; [3])	weight of hepatic lipid (KK-Ay mice; [4])	weight of liver (KK-Ay mice; [4])	weight of small intestine (KK-Ay mice; [4])	abnormalities in feed intake, glossiness of hair or action (KK-Ay mice; breeding period)
C\C(C=C=C1C(C)(C)C[C@H](O)C[C@@]1(C)O)=C/C=C/C(C)=C/C=C/C=C(C)/C=C/C=C(\C)C(=O)C[C@@]12O[C@]1(C)C[C@@H](O)CC2(C)C [fucoxanthinol]	lowered	markedly controlled	significantly reduced	significantly reduced	reduced								
fucoxanthin	no significant differences	apparently lower than that of fucoxanthinol				far stronger antiproliferative activity than that of troglytazone	has differentiation suppressing activity on adipocytes	no significant differences	no significant differences	no significant differences	no significant differences	no significant differences	no abnormalities
